Assay results published in ChEMBL document CHEMBL5260845, “Flavone-based arylamides as potential anticancers: Design, synthesis and in vitro cell-based/cell-free evaluations” (2020).
Active and inactive are the calls of the source. The calls are words filed in the database; no cut-off is given here.

Key:
SR [1] = experiment: Antiproliferative activity against human SR cells assessed as cell growth inhibition at 10 uM by SRB assay; type: functional, cell-based
HCT-116 = experiment: Antiproliferative activity against human HCT-116 cells assessed as cell growth inhibition at 10 uM by SRB assay relative to control; type: functional
RXF 393 = experiment: Antiproliferative activity against human RXF 393 cells assessed as inhibition of cell growth at 10 uM by SRB assay relative to control; type: functional
RPMI-8226 [2] = experiment: Antiproliferative activity against human RPMI-8226 cells assessed as cell growth inhibition at 10 uM by SRB assay; type: functional, cell-based
CAKI-1 = experiment: Antiproliferative activity against human CAKI-1 cells assessed as inhibition of cell growth at 10 uM by SRB assay relative to control; type: functional
HOP-92 = experiment: Antiproliferative activity against human HOP-92 cells assessed as cell growth inhibition at 10 uM by SRB assay; type: functional, cell-based
EKVX = experiment: Antiproliferative activity against human EKVX cells assessed as cell growth inhibition at 10 uM by SRB assay; type: functional
CCRF-CEM [3] = experiment: Antiproliferative activity against human CCRF-CEM cells assessed as cell growth inhibition at 10 uM by SRB assay; type: functional, cell-based
T47D = experiment: Antiproliferative activity against estrogen receptor positive human T47D cells assessed as inhibition of cell growth at 10 uM by SRB assay relative to control; type: functional
Hs-578T = experiment: Antiproliferative activity against human Hs-578T cells assessed as inhibition of cell growth at 10 uM by SRB assay; type: functional, cell-based
HL-60 [4] = experiment: Antiproliferative activity against human HL-60 cells assessed as cell growth inhibition at 10 uM by SRB assay; type: functional, cell-based
ACHN = experiment: Antiproliferative activity against human ACHN cells assessed as inhibition of cell growth at 10 uM by SRB assay relative to control; type: functional; conditions: pooled result: one value given for 2 cell lines, strains, targets or settings
[5] = Antiproliferative activity against human hematologic cancer cells assessed as cell growth inhibition at 10 uM by SRB assay relative to control; type: functional
Renal cancer cell line = experiment: Antiproliferative activity against human renal cancer cells assessed as cell growth inhibition at 10 uM by SRB assay relative to control; type: functional
Prostatic carcinoma cell = experiment: Antiproliferative activity against human prostatic carcinoma cells assessed as cell growth inhibition at 10 uM by SRB assay relative to control; type: functional
K562 [6] = experiment: Antiproliferative activity against human K562 cells assessed as cell growth inhibition at 10 uM by SRB assay; type: functional, cell-based
NCI-H522 = experiment: Antiproliferative activity against human NCI-H522 cells assessed as cell growth inhibition at 10 uM by SRB assay; type: functional, cell-based
LOX IMVI = experiment: Antiproliferative activity against human LOX IMVI cells assessed as cell growth inhibition at 10 uM by SRB assay; type: functional, cell-based
MOLT-4 [7] = experiment: Antiproliferative activity against human MOLT-4 cells assessed as cell growth inhibition at 10 uM by SRB assay; type: functional, cell-based
Malme-3M = experiment: Antiproliferative activity against human Malme-3M cells assessed as cell growth inhibition at 10 uM by SRB assay; type: functional, cell-based
[8] = Antiproliferative activity against human colon cancer cells assessed as cell growth inhibition at 10 uM by SRB assay relative to control; type: functional; conditions: Colon carcinoma cell
NCI-H226 = experiment: Antiproliferative activity against human NCI-H226 cells assessed as cell growth inhibition at 10 uM by SRB assay; type: functional
SK-MEL-2 = experiment: Antiproliferative activity against human SK-MEL-2 cells assessed as cell growth inhibition at 10 uM by SRB assay relative to control; type: functional; conditions: Homo sapiens, SK-MEL-2, dose 10 µM
NCI-H23 = experiment: Antiproliferative activity against human NCI-H23 cells assessed as cell growth inhibition at 10 uM by SRB assay; type: functional
M14 = experiment: Antiproliferative activity against human M14 cells assessed as cell growth inhibition at 10 uM by SRB assay; type: functional, cell-based
SF-295 [9] = experiment: Antiproliferative activity against human SF-295 cells assessed as cell growth inhibition at 10 uM by SRB assay; type: functional, cell-based
HL-60 [10] = experiment: Antiproliferative activity against human HL-60 cells assessed as cell growth inhibition at 10 uM by SRB assay relative to control; type: functional
RPMI-8226 [11] = experiment: Antiproliferative activity against human RPMI-8226 cells assessed as cell growth inhibition at 10 uM by SRB assay relative to control; type: functional
SR [12] = experiment: Antiproliferative activity against human SR cells assessed as cell growth inhibition at 10 uM by SRB assay relative to control; type: functional
MOLT-4 [13] = experiment: Antiproliferative activity against human MOLT-4 cells assessed as cell growth inhibition at 10 uM by SRB assay relative to control; type: functional
CCRF-CEM [14] = experiment: Antiproliferative activity against human CCRF-CEM cells assessed as cell growth inhibition at 10 uM by SRB assay relative to control; type: functional
UO-31 = experiment: Antiproliferative activity against human UO-31 cells assessed as inhibition of cell growth at 10 uM by SRB assay relative to control; type: functional
K562 [15] = experiment: Antiproliferative activity against human K562 cells assessed as cell growth inhibition at 10 uM by SRB assay relative to control; type: functional
OVCAR-4 = experiment: Antiproliferative activity against human OVCAR-4 cells assessed as cell growth inhibition at 10 uM by SRB assay relative to control; type: functional
SK-OV-3 = experiment: Antiproliferative activity against human SK-OV-3 cells assessed as inhibition of cell growth at 10 uM by SRB assay relative to control; type: functional
SF-295 [16] = experiment: Antiproliferative activity against human SF-295 cells assessed as cell growth inhibition at 10 uM by SRB assay relative to control; type: functional
SNB-75 [17] = experiment: Antiproliferative activity against human SNB-75 cells assessed as cell growth inhibition at 10 uM by SRB assay relative to control; type: functional
SNB-75 [18] = experiment: Antiproliferative activity against human SNB-75 cells assessed as cell growth inhibition at 10 uM by SRB assay; type: functional, cell-based
SNB-19 = experiment: Antiproliferative activity against human SNB-19 cells assessed as cell growth inhibition at 10 uM by SRB assay; type: functional, cell-based
U-251 = experiment: Antiproliferative activity against human U-251 cells assessed as cell growth inhibition at 10 uM by SRB assay; type: functional, cell-based
SF-539 = experiment: Antiproliferative activity against human SF-539 cells assessed as cell growth inhibition at 10 uM by SRB assay; type: functional, cell-based
SF-268 = experiment: Antiproliferative activity against human SF-268 cells assessed as cell growth inhibition at 10 uM by SRB assay; type: functional, cell-based

SMILES	inhibition (SR [1])	inhibition (RPMI-8226 [2])	inhibition (HOP-92)	inhibition at 10 µM (EKVX)	inhibition (CCRF-CEM [3])	inhibition at 10 µM (T47D)	inhibition (Hs-578T)	inhibition (HL-60 [4])	inhibition at 10 µM [5]	inhibition at 10 µM (Prostatic carcinoma cell)	inhibition (K562 [6])	inhibition (NCI-H522)	inhibition (MOLT-4 [7])	inhibition at 10 µM [8]	inhibition at 10 µM (NCI-H226)	inhibition at 10 µM (SK-MEL-2)	inhibition at 10 µM (NCI-H23)	inhibition (SF-295 [9])	inhibition at 10 µM (RPMI-8226 [11])	inhibition (UO-31)	other results
COc1cc2oc(-c3cccc(NC(=O)c4ccc(Cl)cc4)c3)cc(=O)c2c(OC)c1OC	Active	Active	Active	< 50%	Active	62.2%	Active	Active	> 50%	> 50%	Active	Active	Active	> 50%	< 50%	≤ 46%	< 50%	Active			inhibition at 10 µM (HCT-116): 88%; inhibition at 10 µM (RXF 393): 51.1%; inhibition at 10 µM (CAKI-1): 51.1%; inhibition at 10 µM (ACHN): 51.1%; inhibition at 10 µM (Renal cancer cell line): > 50%; inhibition (LOX IMVI): Active; inhibition (Malme-3M): Active; inhibition (M14): Active
COc1cc2oc(-c3ccc(NC(=O)c4ccc(F)cc4)cc3)cc(=O)c2c(OC)c1OC			Active	< 50%			Active					Active			< 50%		< 50%	Active	≤ 42.6%	Active	inhibition at 10 µM (HL-60 [10]): ≤ 42.6%; inhibition at 10 µM (SR [12]): ≤ 42.6%; inhibition at 10 µM (MOLT-4 [13]): ≤ 42.6%; inhibition at 10 µM (CCRF-CEM [14]): ≤ 42.6%; inhibition at 10 µM (K562 [15]): ≤ 42.6%
CC(=O)O[C@H]1C(=O)[C@@]2(C)[C@H]([C@H](OC(=O)c3ccccc3)[C@]3(O)C[C@H](OC(=O)[C@H](O)[C@@H](NC(=O)c4ccccc4)c4ccccc4)C(C)=C1C3(C)C)[C@]1(OC(C)=O)CO[C@@H]1C[C@@H]2O [PACLITAXEL]																					inhibition at 10 µM (OVCAR-4): 113%; inhibition at 10 µM (SK-OV-3): 57.1%
Cn1nnc2c(C(N)=O)ncn2c1=O [TEMOZOLOMIDE]																					inhibition at 10 µM (SF-295 [16]): 29.8%; inhibition at 10 µM (SNB-75 [17]): 40.8%
COc1cc2oc(-c3cccc(NC(=O)c4cccc(Br)c4)c3)cc(=O)c2c(OC)c1OC	Active	Active	Active	< 50%	Active	72.3%	Active	Active	> 50%	> 50%	Active	Active	Active	> 50%	< 50%	≤ 46%	< 50%	Active		Active	
COc1cc2oc(-c3ccc(NC(=O)c4cccc(Br)c4)cc3)cc(=O)c2c(O)c1OC																		inactive	82.6%		inhibition (SNB-75 [18]): inactive; inhibition (SNB-19): inactive; inhibition (U-251): inactive; inhibition (SF-539): inactive; inhibition (SF-268): inactive
